{"source": "patent US4634709A", "about": "“Platelet aggregation inhibitory agents and intermediates therefor” (Research Corporation, priority 1984, dated 1987)", "key": {"[1]": {"test_system": "human blood platelet aggregation, thrombin-induced", "test": "Inhibition of thrombin-induced human blood platelet aggregation (aggregometry, platelet-rich plasma)", "format": "cell-based", "conditions": "50 μM evaluant; human PRP; 1.0 unit α-thrombin/ml PRP", "protocol": "(§1) Adenosine diphosphate (ADP) used to induce platelet aggregation was employed as the sodium salt. A 10 mM stock solution was prepared fresh before each use in modified Tyrode's buffer and working dilutions were prepared with modified Tyrode's buffer immediately prior to use. The buffer contained NaCl (137.00 mM), KCl (2.70 mM), NaHCO3 (11.90 mM), NaH2 PO4.H2 O (0.36 mM) and glucose (5.60 mM) in redistilled water. Adjustment to pH 7.4 was effected by addition of 1N HCl. A solution of highly purified human α-thrombin (10,624 units/ml) wss stored at -70° C. in 10 μl aliquots. The latter were diluted with modified Tyrode's buffer to a concentration of 10.0 units/ml immediately prior to use.\nVenous blood for the examples set forth below was collected in plastic syringes from healthy male volunteers (aged 21-30 years) who had fasted overnight and had abstained from all medications, alcohol, tobacco and caffeine for a period of at least one week prior to donations. In experiments employing ADP as the aggregation-inducing agent, the blood was transferred into siliconized centrifuge tubes containing 3.2% sodium citrate (blood/citrate ratio 8:1); in thrombin-induced aggregations, 3.8% sodium citrate (blood/citrate ratio 9:1) was used. The cirtrated whole blood was centrifuged at 120×g for 15 minutes at 23° C., yielding platelet-rich plasma (PRP); platelet-poor plasma (PPP) was obtained by centrifugation of citrated whole blood at 1,100×g for […] at 23° C. The platelet count of PRP was determined and adjusted to a final count of 300,000 platelets per mm^3 by dilution with autologous PPP. (Occasionally, blood from a given donor yielded PRP with a count lower than the stipulated figure; however, this was usually greater than 285,000, and never less than 250,000 platelets per mm^3.) The plasma so obtained was transferred in 1.2-ml aliquots to siliconized glass tubes, by means of a siliconized Pasteur pipet. In order to maintain plasma pH in the appropriate range, the air in the tubes was displaced gently (1 minute) with a 5% CO2 -95% air (v/v) mixture and the tubes sealed with Parafilm according to the method of Han et al, Br. J. Haematol. Vol. 26, pages 373-389 (1974). The plasma was maintained at 37° C. in a water bath until used in the aggregation experiments. […]\nInitially, in each experiment, 0.45-ml aliquots of PRP were placed in siliconized cuvettes and stirred (1,100 rpm) in the aggregometer at 37° C. to ascertain the absence of spontaneous aggregation. […] In each case, the concentration of ADP so determined was used in eliciting aggregation throughout each specific set of aggregometric evaluations. […]"}, "patient's platelets": {"test_system": "patient's platelets", "conditions": "Walder et al; cited from earlier work"}, "[2]": {"test_system": "human blood platelet aggregation, ADP-induced", "test": "Inhibition of ADP-induced human blood platelet aggregation (aggregometry, platelet-rich plasma)", "format": "cell-based", "conditions": "Platelet; 50 μM evaluant; human PRP; % reduction in maximal aggregation intensity vs control", "protocol": "as §1\nVenous blood for the examples set forth below was collected in plastic syringes from healthy male volunteers (aged 21-30 years) who had fasted overnight and had abstained from all medications, alcohol, tobacco and caffeine for a period of at least one week prior to donations. In experiments employing ADP as the aggregation-inducing agent, the blood was transferred into siliconized centrifuge tubes containing 3.2% sodium citrate (blood/citrate ratio 8:1); in thrombin-induced aggregations, 3.8% sodium citrate (blood/citrate ratio 9:1) was used. The cirtrated whole blood was centrifuged at 120×g for 15 minutes at 23° C., yielding platelet-rich plasma (PRP); platelet-poor plasma (PPP) was obtained by centrifugation of citrated whole blood at 1,100×g for […] at 23° C. The platelet count of PRP was determined and adjusted to a final count of 300,000 platelets per mm^3 by dilution with autologous PPP. (Occasionally, blood from a given donor yielded PRP with a count lower than the stipulated figure; however, this was usually greater than 285,000, and never less than 250,000 platelets per mm^3.) The plasma so obtained was transferred in 1.2-ml aliquots to siliconized glass tubes, by means of a siliconized Pasteur pipet. In order to maintain plasma pH in the appropriate range, the air in the tubes was displaced gently (1 minute) with a 5% CO2 -95% air (v/v) mixture and the tubes sealed with Parafilm according to the method of Han et al, Br. J. Haematol. Vol. 26, pages 373-389 (1974). The plasma was maintained at 37° C. in a water bath until used in the aggregation experiments.\nAssays of platelet aggregation was performed at least in duplicate, using plasma acquired from different donors, employing a method developed by Quintana et al (Quintana et al, Thromb. Res., Vol. 22, pages 665-680 (1981); Quintana et al, Thromb. Res., Vol. 20, pages 405-415 (1980) (cf. Born, Nature, Vol. 194, pages 927-929 (1962) and Mustard et al, J. Lab. Clin. Med., Vol. 64, pages 548-559 (1964)).\nInitially, in each experiment, 0.45-ml aliquots of PRP were placed in siliconized cuvettes and stirred (1,100 rpm) in the aggregometer at 37° C. to ascertain the absence of spontaneous aggregation. Appropriate ADP solutions (50 μl) were subsequently injected using a Hamilton microliter syringe to determine the minimal concentration eliciting maximal biphasic aggregation. This ranged from 2 μM to 8 μM (cf. Quintana et al, Thromb. Res., Vol. 22, pages 665-680 (1981); Quintana et al, Thromb. Res., Vol. 20, pages 405-415 (1980)). In each case, the concentration of ADP so determined was used in eliciting aggregation throughout each specific set of aggregometric evaluations. In all thrombin-induced aggregation experiments the same stimulus was applied; this constituted injection of 50 μl of the solution containing 10.0 units of α-thrombin/ml (affording a final concentration of 1.0 unit of α-thrombin/ml PRP).\n0.5 μl of a solution of the evaluant compound in redistilled 95% ethanol was injected into a stirred (1,100 rpm) 0.45-ml aliquot of plasma in a siliconized cuvette in the aggregometer-well (37° C.). After 15 seconds, the cuvette was transferred to an incubator (also at 37° C.) and the contents held at this temperature, without stirring, until 2 minutes post-injection. […]"}, "[3]": {"conditions": "literature; cited from earlier work"}}, "data": [{"smiles": "CC(=O)Oc1ccccc1C(=O)O", "note": "[aspirin, reference compound]", "values": [{"measurement": "% inhibition of aggregation, thrombin-induced", "setting": "[1]", "result": 9, "unit": "%"}, {"measurement": "effect on patient's platelets", "setting": "patient's platelets", "result": "incapacitate the patient's platelets for the rest of their life span"}, {"measurement": "inhibition at 50 µM", "setting": "[2]", "result": 24, "unit": "%"}, {"measurement": "deleterious / adverse effects", "setting": "[3]", "result": "severe enough to counsel against its use by survivors of myocardial infarction"}]}]}
